From patent US20260256792A1, “TREATMENT OF CHRONIC SPONTANEOUS URTICARIA BY ADMINISTERING (R)-2-[3-[4-AMINO-3-(2-FLUORO-4-PHENOXY-PHENYL)PYRAZOLO[3,4-D]PYRIMIDIN-1-YL]PIPERIDINE-1-CARBONYL]-4-METHYL-4-[4-(OXETAN-3-YL)PIPERAZIN-1-YL]PENT-2-ENENITRILE” (priority 2023, published 2026)

System: angioedema in CSU patients
Assay: Phase 2 CSU study: angioedema activity score over 7 days (AAS7)
Type: in vivo, human
Conditions: 400 mg BID; for AAS7 = 0, RRD (%) for rilzabrutinib vs. placebo (95% CI) / AAS7 Post-baseline Mean (SD) / Participants with AAS7 = 0, Responder n (%) / AAS7 % Change difference for rilzabrutinib vs. placebo LS Mean (95% CI) / AAS7 Change difference for rilzabrutinib vs. placebo LS Mean (95% CI) / AAS7 Change from baseline LS Mean (SE) / AAS7 % Change from baseline LS Mean (SE) / AAS7 = 0, Non-responder n (%) / AAS7 = 0, OR (95% CI) for rilzabrutinib vs. placebo: angioedema at baseline; for Non-responder n (%), AAS7 = 0 / OR (95% CI) for rilzabrutinib vs. placebo, AAS7 = 0 / RRD (%) for rilzabrutinib vs. placebo (95% CI), AAS7 = 0 / Responder n (%), AAS7 = 0: outlier removed
Excerpt: The study comprises a 12 week, randomized, double-blind, placebo-controlled, multi-center, dose-ranging efficacy and safety phase, followed by a 40 week open label extension (OLE) phase (see FIG. 1). The study consists of three phases and an optional OLE phase. […] The weekly angioedema activity score (AAS7) was proposed as a tertiary endpoint. […] Patients were to complete the AAS using the e-diary. The e-diary was to be used once daily on the same time of each day recording of participant's answers to the angioedema activity score over 7 days (AAS7) questionnaire.

CC(C)(C=C(C#N)C(=O)N1CCC[C@@H](n2nc(-c3ccc(Oc4ccccc4)cc3F)c3c(N)ncnc32)C1)N1CCN(C2COC2)CC1 [rilzabrutinib, (R)-2-[3-[4-amino-3-(2-fluoro-4-phenoxy-phenyl)pyrazolo[3,4-d]pyrimidin-1-yl]piperidine-1-carbonyl]-4-methyl-4-[4-(oxetan-3-yl)piperazin-1-yl]pent-2-enenitrile]
AAS7 = 0, RRD (%) for rilzabrutinib vs. placebo (95% CI) (Week 8, omalizumab-naïve): 26.4 % | AAS7 Post-baseline Mean (SD) (Week 8, omalizumab-naïve): 9.97 (16.69) | Participants with AAS7 = 0, Responder n (%) (Week 8, omalizumab-naïve): 13 (50.0) n (%) | AAS7 % Change difference for rilzabrutinib vs. placebo LS Mean (95% CI) (Week 9, ITT): −26.88 (−56.35, 2.58) % | AAS7 Change difference for rilzabrutinib vs. placebo LS Mean (95% CI) (Week 9, ITT): −11.25 (−21.79, −0.72) | AAS7 Change from baseline LS Mean (SE) (Week 9, ITT): −40.70 (4.08) | AAS7 Post-baseline Mean (SD) (Week 9, ITT): 10.00 (17.78) | Non-responder n (%), AAS7 = 0 (Week 9, omalizumab-naïve): 18 (51.4) n (%) | OR (95% CI) for rilzabrutinib vs. placebo, AAS7 = 0 (Week 9, omalizumab-naïve): 0.919 | RRD (%) for rilzabrutinib vs. placebo (95% CI), AAS7 = 0 (Week 9, omalizumab-naïve): −2.1 % | Responder n (%), AAS7 = 0 (Week 9, omalizumab-naïve): 17 (48.6) n (%) | AAS7 % Change from baseline LS Mean (SE) (Week 9, omalizumab-naïve): −74.80 (12.27) % | AAS7 = 0, Non-responder n (%) (Week 9, omalizumab-naïve): 14 (53.8) n (%) | AAS7 = 0, OR (95% CI) for rilzabrutinib vs. placebo (Week 9, omalizumab-naïve): 1.787 | AAS7 = 0, RRD (%) for rilzabrutinib vs. placebo (95% CI) (Week 9, omalizumab-naïve): 14.5 % | AAS7 Post-baseline Mean (SD) (Week 9, omalizumab-naïve): 10.87 (18.30) | Participants with AAS7 = 0, Responder n (%) (Week 9, omalizumab-naïve): 12 (46.2) n (%) | AAS7 % Change difference for rilzabrutinib vs. placebo LS Mean (95% CI) (Week 10, ITT): −15.09 (−55.38, 25.21) % | AAS7 % Change from baseline LS Mean (SE) (Week 10, ITT): −64.07 (15.65) % | AAS7 Change difference for rilzabrutinib vs. placebo LS Mean (95% CI) (Week 10, ITT): −8.79 (−20.40, 2.82) | AAS7 Change from baseline LS Mean (SE) (Week 10, ITT): −39.12 (4.47) | AAS7 Post-baseline Mean (SD) (Week 10, ITT): 12.72 (19.89) | Non-responder n (%), AAS7 = 0 (Week 10, omalizumab-naïve): 19 (54.3) n (%) | OR (95% CI) for rilzabrutinib vs. placebo, AAS7 = 0 (Week 10, omalizumab-naïve): 0.945 | RRD (%) for rilzabrutinib vs. placebo (95% CI), AAS7 = 0 (Week 10, omalizumab-naïve): −1.4 % | Responder n (%), AAS7 = 0 (Week 10, omalizumab-naïve): 16 (45.7) n (%) | AAS7 % Change from baseline LS Mean (SE) (Week 10, omalizumab-naïve): −60.11 (16.65) % | AAS7 = 0, Non-responder n (%) (Week 10, omalizumab-naïve): 15 (57.7) n (%) | AAS7 = 0, OR (95% CI) for rilzabrutinib vs. placebo (Week 10, omalizumab-naïve): 1.734 | AAS7 = 0, RRD (%) for rilzabrutinib vs. placebo (95% CI) (Week 10, omalizumab-naïve): 13.1 % | AAS7 Post-baseline Mean (SD) (Week 10, omalizumab-naïve): 13.93 (20.43) | Participants with AAS7 = 0, Responder n (%) (Week 10, omalizumab-naïve): 11 (42.3) n (%) | AAS7 % Change difference for rilzabrutinib vs. placebo LS Mean (95% CI) (Week 11, ITT): −23.43 (−51.36, 4.50) % | AAS7 % Change from baseline LS Mean (SE) (Week 11, ITT): −84.81 (10.85) % | AAS7 Change difference for rilzabrutinib vs. placebo LS Mean (95% CI) (Week 11, ITT): −8.17 (−19.55, 3.20) | AAS7 Change from baseline LS Mean (SE) (Week 11, ITT): −42.03 (4.41) | AAS7 Post-baseline Mean (SD) (Week 11, ITT): 10.31 (18.47) | Non-responder n (%), AAS7 = 0 (Week 11, omalizumab-naïve): 14 (40.0) n (%) | OR (95% CI) for rilzabrutinib vs. placebo, AAS7 = 0 (Week 11, omalizumab-naïve): 1.516 | RRD (%) for rilzabrutinib vs. placebo (95% CI), AAS7 = 0 (Week 11, omalizumab-naïve): 10.4 % | Responder n (%), AAS7 = 0 (Week 11, omalizumab-naïve): 21 (60.0) n (%) | AAS7 = 0, Non-responder n (%) (Week 11, omalizumab-naïve): 13 (50.0) n (%) | AAS7 = 0, OR (95% CI) for rilzabrutinib vs. placebo (Week 11, omalizumab-naïve): 2.010 | AAS7 = 0, RRD (%) for rilzabrutinib vs. placebo (95% CI) (Week 11, omalizumab-naïve): 17.8 % | AAS7 Post-baseline Mean (SD) (Week 11, omalizumab-naïve): 11.30 (19.07) | Participants with AAS7 = 0, Responder n (%) (Week 11, omalizumab-naïve): 13 (50.0) n (%) | AAS7 % Change from baseline LS Mean (SE) (Week 12, ITT): −87.51 (10.12) % | AAS7 Change difference for rilzabrutinib vs. placebo LS Mean (95% CI) (Week 12, ITT): −7.07 (−17.69, 3.54) | AAS7 Change from baseline LS Mean (SE) (Week 12, ITT): −42.38 (4.13) | AAS7 Post-baseline Mean (SD) (Week 12, ITT): 10.67 (17.53) | patients with angioedema score (AAS7) of 0 (Week 12, omalizumab-naïve): 42.3% | Non-responder n (%), AAS7 = 0 (Week 12, omalizumab-naïve): 18 (51.4) n (%) | OR (95% CI) for rilzabrutinib vs. placebo, AAS7 = 0 (Week 12, omalizumab-naïve): 0.925 | RRD (%) for rilzabrutinib vs. placebo (95% CI), AAS7 = 0 (Week 12, omalizumab-naïve): −1.9 % | Responder n (%), AAS7 = 0 (Week 12, omalizumab-naïve): 17 (48.6) n (%) | AAS7 = 0, Non-responder n (%) (Week 12, omalizumab-naïve): 15 (57.7) n (%) | AAS7 = 0, OR (95% CI) for rilzabrutinib vs. placebo (Week 12, omalizumab-naïve): 1.627 | AAS7 = 0, RRD (%) for rilzabrutinib vs. placebo (95% CI) (Week 12, omalizumab-naïve): 11.3 % | AAS7 Change difference for rilzabrutinib vs. placebo LS Mean (95% CI) (Week 12, omalizumab-naïve): −8.14 (−19.74, 3.45)
